According to US5912269A, “Butyrate prodrugs derived from lactic acid” (Vertex Pharmaceuticals, Inc., priority 1996, dated 1999):
Where two headings read alike, the source gives them in different places.

What was measured:
[1] = cited from earlier work
γ globin chain = assay: % γ globin chain levels by HPLC, efficacy study in anemic rhesus monkeys; assay type: in vivo
Procedure: (§1) The efficacy of compound IIIc administered in conjunction with hydroxyurea was tested on six anemic rhesus monkeys divided into three groups of two each. Each group was studied in two phases, as shown below. Fetal hemoglobin cells (F cells), Hemoglobin F level in total Hemoglobin (% Hb F) and % γ globin chain levels were monitored before and after each of the two phases. % F cells were measured according to the protocol described in Betke et al, Blut., 4, pp. 241-9 (1958). % Hb F and % γ globin chain synthesis were measured using High Performance Liquid Chromatography (HPLC) according to the protocol described in Huisman, J. Chromagtogr., 418, pp. 277 (1987).

Hemoglobin F = Hemoglobin F level in total hemoglobin (% Hb F) by HPLC, efficacy study in anemic rhesus monkeys; assay type: in vivo
Procedure: as §1

[2] = Triglyceride and ALT levels during efficacy study in anemic rhesus monkeys; conditions: all three groups, prior to or during the two phases
[3] = system: Fetal hemoglobin cells (F cells); assay: Fetal hemoglobin cells (% F cells), efficacy study in anemic rhesus monkeys; assay type: in vivo
[4] = rhesus monkey, in vivo
[5] = system: sickle cell anemia patients; conditions: cited from earlier work
[6] = Groups II and III (compound IIIc)
[7] = Group I (hydroxyurea in Phase I, hydroxyurea + compound IIIc in Phase II)

Compound: CCCC(=O)OCOC(=O)C(C)(C)C [AN-9]
- formaldehyde-producing metabolites in vivo [1]: elicit metabolites that may produce formaldehyde in vivo

Compound: CCCC(=O)O[C@@H](C)C(=O)OCC [Compound IIIc]
- γ-globin chain levels (γ globin chain; [6]): no measurable change
- HbF (Hemoglobin F; [6]): no measurable change
- levels of ALT [2]: no detectable difference
- levels of the triglycerides [2]: no detectable difference
- % F cell count at the end of Phase II ([3]; Animal 2, group II, compound IIIc 1 g/kg/TID, 5 weeks, 8-10% before Phase I): 22%
- % F cell count at the end of Phase I ([3]; Animal 2, group II, compound IIIc 1 g/kg/day, 5 weeks, 8-10% before Phase I): 15%
- increase in % F cells [3, 6]: small but significant increase

Compound: NC(=O)NO [Hydroxyurea, hydroxyurea]
- levels of ALT [4]: no detectable difference
- levels of the triglycerides [4]: no detectable difference
- % γ-globin chain levels (γ globin chain; [7]): measurable increase
- % Hb F level (Hemoglobin F; [7]): measurable increase
- fetal hemoglobin production and sickling crisis [5]: stimulates fetal hemoglobin production and reduces sickling crisis
- % F cell count at the end of Phase I ([3]; Animal 1, group I, hydroxyurea 50 mg/kg/day, 5 weeks, 8-10% before Phase I): 25%
